Laboratory results: ChEMBL document CHEMBL1201862, “PubChem BioAssay data set” (2004)
Active and inactive are the calls of the source. Rule as the data show it, for most assays here: actives have a measured IC50 and inactives only a lower limit.

How the values were obtained:
[1] = target: T1, Sentrin-specific protease 8 (Homo sapiens, UniProt Q96LD8); format: functional;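 also: luminescence read-out of SENP8 inhibition, dose-response confirmation following an ultra-high-throughput screen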
T1 sequence (Q96LD8 whole entry): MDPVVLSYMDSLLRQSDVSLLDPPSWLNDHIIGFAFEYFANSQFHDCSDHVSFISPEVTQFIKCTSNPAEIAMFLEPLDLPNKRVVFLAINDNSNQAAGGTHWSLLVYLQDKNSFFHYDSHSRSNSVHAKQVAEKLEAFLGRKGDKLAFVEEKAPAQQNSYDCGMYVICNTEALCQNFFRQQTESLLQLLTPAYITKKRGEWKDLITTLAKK

[2] = target: T2, Caspase-3 (Homo sapiens, UniProt P42574); format: functional;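 also: Dose-response selectivity test against caspase-3 for candidate inhibitors of sentrin-specific proteases (SENPs)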
T2 sequence (P42574 whole entry): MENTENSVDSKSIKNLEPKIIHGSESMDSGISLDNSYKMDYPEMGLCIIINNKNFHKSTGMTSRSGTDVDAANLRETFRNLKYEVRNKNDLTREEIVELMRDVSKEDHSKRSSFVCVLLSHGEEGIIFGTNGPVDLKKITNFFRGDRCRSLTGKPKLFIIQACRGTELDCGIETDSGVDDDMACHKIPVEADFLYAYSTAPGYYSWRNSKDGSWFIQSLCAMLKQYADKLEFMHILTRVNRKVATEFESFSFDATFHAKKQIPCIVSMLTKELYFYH

[3] = target: T3, Sentrin-specific protease 7 (Homo sapiens, UniProt Q9BQF6); format: functional;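 also: Luminescence-based dose-response confirmation of ultra-high-throughput screening hits, measuring inhibition of SENP7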
T3 sequence (Q9BQF6 whole entry): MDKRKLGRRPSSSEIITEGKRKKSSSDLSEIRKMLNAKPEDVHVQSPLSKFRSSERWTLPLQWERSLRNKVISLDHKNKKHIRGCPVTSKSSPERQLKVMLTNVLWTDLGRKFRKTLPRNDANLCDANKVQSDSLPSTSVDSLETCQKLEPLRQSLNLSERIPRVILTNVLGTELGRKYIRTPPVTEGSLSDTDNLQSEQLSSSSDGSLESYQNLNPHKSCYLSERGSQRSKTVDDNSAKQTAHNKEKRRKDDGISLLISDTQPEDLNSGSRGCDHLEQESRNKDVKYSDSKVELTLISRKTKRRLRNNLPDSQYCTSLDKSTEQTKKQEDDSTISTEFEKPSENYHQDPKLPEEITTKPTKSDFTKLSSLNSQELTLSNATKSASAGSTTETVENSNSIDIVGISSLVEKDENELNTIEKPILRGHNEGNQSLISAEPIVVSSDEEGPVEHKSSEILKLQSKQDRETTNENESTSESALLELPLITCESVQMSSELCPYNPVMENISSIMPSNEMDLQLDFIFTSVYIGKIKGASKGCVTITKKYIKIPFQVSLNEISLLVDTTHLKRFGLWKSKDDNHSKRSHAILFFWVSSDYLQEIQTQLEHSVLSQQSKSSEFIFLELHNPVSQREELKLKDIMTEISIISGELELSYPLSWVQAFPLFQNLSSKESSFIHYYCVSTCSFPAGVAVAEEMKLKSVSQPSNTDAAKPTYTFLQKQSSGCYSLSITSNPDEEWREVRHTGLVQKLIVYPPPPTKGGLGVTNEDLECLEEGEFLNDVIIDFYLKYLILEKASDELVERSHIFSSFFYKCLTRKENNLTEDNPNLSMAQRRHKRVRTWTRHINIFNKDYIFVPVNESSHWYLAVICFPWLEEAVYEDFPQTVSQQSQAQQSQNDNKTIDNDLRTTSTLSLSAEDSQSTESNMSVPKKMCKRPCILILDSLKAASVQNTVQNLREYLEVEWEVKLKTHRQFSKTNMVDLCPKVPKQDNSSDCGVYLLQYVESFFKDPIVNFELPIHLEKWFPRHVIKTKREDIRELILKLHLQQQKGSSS

[4] = target: T4, Caspase-6 (Homo sapiens, UniProt P55212); experiment: inhibition of CASP6 peptide cleavage – biochemical, VEID-R110 fluorescence, cherry-pick, dose response (AID 720632)
T4 sequence (P55212 whole entry): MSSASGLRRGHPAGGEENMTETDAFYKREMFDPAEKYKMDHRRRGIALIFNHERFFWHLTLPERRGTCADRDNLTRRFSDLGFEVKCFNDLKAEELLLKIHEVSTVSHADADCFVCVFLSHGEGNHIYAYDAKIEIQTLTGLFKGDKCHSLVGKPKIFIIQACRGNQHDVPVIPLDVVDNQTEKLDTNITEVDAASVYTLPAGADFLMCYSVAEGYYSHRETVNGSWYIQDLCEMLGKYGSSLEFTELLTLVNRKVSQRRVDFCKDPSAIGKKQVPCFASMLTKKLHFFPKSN

[5] = target: T5, Sentrin-specific protease 6 (Homo sapiens, UniProt Q9GZR1); format: functional;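 also: Luminescence-based dose-response confirmatory assay of SENP6 inhibition, following up an ultra-high-throughput screen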
T5 sequence (Q9GZR1 whole entry): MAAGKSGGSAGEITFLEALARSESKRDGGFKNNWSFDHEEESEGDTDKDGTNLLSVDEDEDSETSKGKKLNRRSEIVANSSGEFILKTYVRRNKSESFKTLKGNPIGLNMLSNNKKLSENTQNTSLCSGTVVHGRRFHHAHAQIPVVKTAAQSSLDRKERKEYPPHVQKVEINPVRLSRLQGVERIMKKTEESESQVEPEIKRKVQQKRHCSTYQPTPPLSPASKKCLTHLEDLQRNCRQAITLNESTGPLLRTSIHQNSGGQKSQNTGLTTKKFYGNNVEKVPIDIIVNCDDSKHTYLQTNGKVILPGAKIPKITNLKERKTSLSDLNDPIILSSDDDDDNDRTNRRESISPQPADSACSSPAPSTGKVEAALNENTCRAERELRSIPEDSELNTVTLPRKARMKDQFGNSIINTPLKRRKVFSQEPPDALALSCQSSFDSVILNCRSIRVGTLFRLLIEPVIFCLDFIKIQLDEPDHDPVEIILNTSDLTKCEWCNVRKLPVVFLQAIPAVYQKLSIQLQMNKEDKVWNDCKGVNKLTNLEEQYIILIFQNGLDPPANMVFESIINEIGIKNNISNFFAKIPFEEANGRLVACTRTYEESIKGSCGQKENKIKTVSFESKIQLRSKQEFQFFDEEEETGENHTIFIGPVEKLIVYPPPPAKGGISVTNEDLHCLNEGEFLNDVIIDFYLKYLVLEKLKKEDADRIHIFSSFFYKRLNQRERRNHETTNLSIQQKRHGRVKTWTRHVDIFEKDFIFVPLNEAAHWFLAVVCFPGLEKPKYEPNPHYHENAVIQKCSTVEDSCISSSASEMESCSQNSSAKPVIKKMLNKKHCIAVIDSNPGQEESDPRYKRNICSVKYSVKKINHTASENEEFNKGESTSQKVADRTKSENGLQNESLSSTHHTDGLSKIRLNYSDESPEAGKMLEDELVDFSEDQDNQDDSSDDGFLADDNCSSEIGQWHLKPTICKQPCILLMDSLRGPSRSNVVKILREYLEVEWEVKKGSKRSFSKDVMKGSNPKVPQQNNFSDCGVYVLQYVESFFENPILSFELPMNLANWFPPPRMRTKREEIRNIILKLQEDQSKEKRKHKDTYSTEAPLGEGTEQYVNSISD

Row | Structure (SMILES) | IC50 [1] | IC50 [2] | IC50 [3] | AC50 [4] | IC50 [5]
1 | C=CCn1c(NC(=O)c2ccccc2Cl)c(C#N)c2nc3ccccc3nc21 | < 1.55 µM (active) | 5.6 µM (active) | 3.08 µM (active) | 10.4 µM (active) | < 1.55 µM (active)
2 | O=c1oc2c(O)cccc2cc1-c1nc2ccccc2[nH]1 | 2.65 µM (active) | 0.95 µM (active) | 0.955 µM (active) |  | 1.26 µM (active)
3 | CCOC(=O)c1ccc(Nc2cc3ccccc3c(O)n2)cc1 | 13.6 µM (active) | 8.27 µM (active) | 10.1 µM (active) | 15.7 µM (active) | 6.63 µM (active)
